Active and inactive are the calls of the source. The rule behind the calls is not given here.
Legend:
RAW264.7 [1] = assay: Antiinflammatory activity in mouse RAW264.7 cells assessed as inhibition of LPS-induced nitric oxide production at 10 uM after 24 hrs; type: functional, cell-based
RAW264.7 [2] = assay: Antiinflammatory activity in mouse RAW264.7 cells assessed as inhibition of LPS-induced nitric oxide production at 30 uM after 24 hrs; type: functional, cell-based
RAW264.7 [3] = assay: Cytotoxicity against mouse RAW264.7 cells at 30 uM by MTT assay; type: cell-based; conditions: raw264.7, 30 µM
RAW264.7 [4] = assay: Inhibition of LPS-induced iNOS gene expression in mouse RAW264.7 cells at 20 uM after 24 hrs by RT-PCR; type: functional, cell-based
RAW264.7 [5] = assay: Inhibition of LPS-induced iNOS protein expression in mouse RAW264.7 cells at 20 uM after 24 hrs by Western blotting; type: functional, cell-based
RAW264.7 [6] = assay: Inhibition of LPS-induced iNOS protein expression in mouse RAW264.7 cells at 5 uM after 24 hrs by Western blotting; type: functional, cell-based
RAW264.7 [7] = assay: Inhibition of LPS-induced COX2 protein expression in mouse RAW264.7 cells at 20 uM after 24 hrs by Western blotting; type: functional, cell-based
RAW264.7 [8] = assay: Inhibition of LPS-induced COX2 gene expression in mouse RAW264.7 cells at 20 uM after 24 hrs by RT-PCR; type: functional, cell-based
RAW264.7 [9] = assay: Inhibition of LPS-induced COX2 protein expression in mouse RAW264.7 cells at 5 uM after 24 hrs by Western blotting; type: functional, cell-based

Row | SMILES | Activity (RAW264.7 [1]) | Activity (RAW264.7 [2]) | Activity (RAW264.7 [3]) | Activity (RAW264.7 [4]) | Activity (RAW264.7 [5]) | Activity (RAW264.7 [6]) | Activity (RAW264.7 [7]) | Activity (RAW264.7 [8]) | Activity (RAW264.7 [9])
1 | COc1ccc(-c2cc(=O)c3c(OC)c(OC)c(OC)c(OC)c3o2)cc1OC [NOBILETIN] | inactive | inactive | Non-toxic | – | – | – | – | – | –
2 | COc1ccc(-c2cc(=O)c3c(OC)c(OC)c(OC)c(OC)c3o2)cc1O | Active | Active | Non-toxic | inactive | inactive | inactive | – | – | –
3 | COc1c(OC)c(OC)c2c(=O)cc(-c3ccc(O)c(O)c3)oc2c1OC | Active | Active | Non-toxic | Active | Active | Active | Active | Active | Active
4 | COc1cc(-c2cc(=O)c3c(OC)c(OC)c(OC)c(OC)c3o2)ccc1O | Active | Active | Non-toxic | Active | Active | Active | Active | Active | Active
